One assay deals with T1, Androgen receptor (Homo sapiens, UniProt P10275).
T1 sequence (P10275 whole entry): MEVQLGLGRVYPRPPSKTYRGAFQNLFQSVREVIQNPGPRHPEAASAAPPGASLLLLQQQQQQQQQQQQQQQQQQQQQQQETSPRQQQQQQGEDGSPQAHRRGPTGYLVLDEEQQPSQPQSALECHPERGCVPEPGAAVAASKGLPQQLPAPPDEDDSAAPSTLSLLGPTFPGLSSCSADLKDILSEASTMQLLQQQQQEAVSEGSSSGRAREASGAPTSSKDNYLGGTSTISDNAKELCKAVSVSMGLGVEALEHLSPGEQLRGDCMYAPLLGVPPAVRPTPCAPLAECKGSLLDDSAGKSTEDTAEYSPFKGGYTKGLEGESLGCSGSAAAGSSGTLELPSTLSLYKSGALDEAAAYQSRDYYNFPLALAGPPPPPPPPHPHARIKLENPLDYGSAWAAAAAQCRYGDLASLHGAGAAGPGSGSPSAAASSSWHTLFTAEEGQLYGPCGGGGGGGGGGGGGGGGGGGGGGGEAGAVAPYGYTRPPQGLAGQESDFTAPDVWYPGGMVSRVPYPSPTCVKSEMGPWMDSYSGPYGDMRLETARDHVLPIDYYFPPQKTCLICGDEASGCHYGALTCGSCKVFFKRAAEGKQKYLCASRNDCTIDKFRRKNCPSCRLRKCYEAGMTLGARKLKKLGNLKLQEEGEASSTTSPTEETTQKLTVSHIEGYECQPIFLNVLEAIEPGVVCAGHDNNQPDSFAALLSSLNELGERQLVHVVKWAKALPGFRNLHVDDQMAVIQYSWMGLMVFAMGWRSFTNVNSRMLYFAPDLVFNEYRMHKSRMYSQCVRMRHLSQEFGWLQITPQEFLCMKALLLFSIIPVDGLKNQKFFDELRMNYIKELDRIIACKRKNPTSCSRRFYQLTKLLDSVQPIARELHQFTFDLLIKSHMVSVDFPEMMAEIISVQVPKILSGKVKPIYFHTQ
The assay is described as follows: Antagonist activity at human androgen receptor LBD expressed in human MDA-kb2 cells by luciferase reporter gene assay. It counts as cell-based.

Assay [1] has as its target T2, Androgen receptor (Homo sapiens) (UniProt P10275).
T2 sequence (whole entry): T1 sequence (P10275 whole entry)
The assay is described as follows: Competitive reversible inhibition of human androgen receptor LBD expressed in human […] cells at IC10 to IC70 in presence of […]. It counts as cell-based.

The results in this text go back to ChEMBL document CHEMBL2385078, “The systematic structure-activity relationship to predict how flavones bind to human androgen receptor for their antagonistic activity” (Bioorg Med Chem, 2013).

Structures are written as SMILES. Active and inactive are the calls of the source. No cut-off for these calls is given here.

For `O=c1cc(-c2ccc(Cl)cc2)oc2cccc(F)c12`, the IC50 at Androgen receptor (read-out: IC50) was 360 nM; at Androgen receptor (read-out: pIC50 (converted)), 363 nM.

As to `O=c1cc(-c2ccc(F)cc2)oc2cccc(O)c12`, the IC50 is 330 nM at Androgen receptor (read-out: IC50) and 331 nM at Androgen receptor (read-out: pIC50 (converted)).

Consider `O=c1cc(-c2ccc(C(F)(F)F)cc2)oc2cccc(O)c12`, for which the IC50 on Androgen receptor (read-out: IC50) is 1240 nM; at Androgen receptor (read-out: pIC50 (converted)), 1230 nM.

For `N#Cc1ccc(-c2cc(=O)c3c(O)cccc3o2)cc1`, the IC50 is 250 nM at Androgen receptor (read-out: IC50) and 251 nM at Androgen receptor (read-out: pIC50 (converted)).

With `CN(C)c1ccc(-c2cc(=O)c3c(O)cccc3o2)cc1`, the IC50 is 850 nM on Androgen receptor (read-out: IC50) and 851 nM at Androgen receptor (read-out: pIC50 (converted)).

With `O=c1cc(-c2ccc(Cl)cc2)oc2cccc(O)c12`, the IC50 at Androgen receptor (read-out: IC50) is 460 nM; at Androgen receptor (read-out: pIC50 (converted)) it was 457 nM.

Consider `CSc1ccc(-c2cc(=O)c3c(O)cccc3o2)cc1`, for which the IC50 on Androgen receptor (read-out: IC50) and on Androgen receptor (read-out: pIC50 (converted)) was 1070 nM throughout.

As for `O=c1cc(-c2ccc([N+](=O)[O-])cc2)oc2cccc(O)c12`, the IC50 was 360 nM on Androgen receptor (read-out: IC50) and 363 nM on Androgen receptor (read-out: pIC50 (converted)).

Consider `Cc1ccc(-c2cc(=O)c3c(O)cccc3o2)cc1`, for which the IC50 at Androgen receptor (read-out: IC50) is 11100 nM; at Androgen receptor (read-out: pIC50 (converted)) it was 11200 nM.

For the molecule `Nc1ccc(-c2cc(=O)c3c(O)cccc3o2)cc1`, the IC50 on Androgen receptor (read-out: IC50) was 1990 nM; on Androgen receptor (read-out: pIC50 (converted)) it was 2000 nM.

In the case of `COc1cccc2oc(-c3ccc(F)cc3)cc(=O)c12`, the IC50 on Androgen receptor (read-out: IC50) was 1610 nM; at Androgen receptor (read-out: pIC50 (converted)), 1620 nM.

For the molecule `O=c1cc(-c2ccc(O)cc2)oc2cccc(O)c12`, the results for the IC50 on Androgen receptor (read-out: IC50) and on Androgen receptor (read-out: pIC50 (converted)) were 860 nM and 851 nM, respectively.

As for `NC(=O)c1ccc(-c2cc(=O)c3c(O)cccc3o2)cc1`, the IC50 at Androgen receptor (read-out: IC50) was 3580 nM; at Androgen receptor (read-out: pIC50 (converted)) it was 3550 nM.

On to `O=c1cc(-c2ccc(F)cc2)oc2cccc(F)c12`, for which the figures for the IC50 at Androgen receptor (read-out: IC50) and at Androgen receptor (read-out: pIC50 (converted)) were 190 nM and 191 nM, respectively. Further, in assay [1], the inhibition entry was “Active”.

In the case of `N#Cc1ccc(-c2cc(=O)c3c(F)cccc3o2)cc1`, the IC50 on Androgen receptor (read-out: IC50) and at Androgen receptor (read-out: pIC50 (converted)) was 1200 nM each time.

Take `O=c1cc(-c2ccccc2)oc2cccc(F)c12`: the values for the IC50 on Androgen receptor (read-out: IC50) and at Androgen receptor (read-out: pIC50 (converted)) were 770 nM and 776 nM, respectively.
